Laboratory results as given in ChEMBL document CHEMBL5120938, “Development of BET Inhibitors as Potential Treatments for Cancer: Optimization of Pharmacokinetic Properties” (ACS Med Chem Lett, 2022).

Legend:
[1] = target: Bromodomain-containing protein 4 (Homo sapiens, UniProt O60885); assay: Inhibition of N-terminal His6-tagged recombinant human BRD4 (44 to 168 residues) expressed in Escherichia coli BL21 (DE3) incubated for 60 mins by TR-FRET assay
[2] = Inhibition of c-MYC expression in human JJN-3R cells measured after 4 hrs; type: functional, cell-based
[3] = Antiproliferative activity against human JJN-3R cells assessed as inhibition of cell proliferation measured after 72 hrs by MTS assay; type: functional, cell-based
[4] = Metabolic stability in alamethicin treated human liver microsomes assessed as half life pretreated for 5 mins followed by NADPH addition and measured up to 45 mins by LC-MS/MS analysis; type: ADME, Microsome; conditions: time < 50 min
[5] = Metabolic stability in alamethicin treated Sprague-Dawley rat liver microsomes assessed as half life pretreated for 5 mins followed by NADPH addition and measured up to 45 mins by LC-MS/MS analysis; type: ADME, Microsome; conditions: time < 50 min
[6] = Metabolic stability in alamethicin treated CD-1 mouse liver microsomes assessed as half life pretreated for 5 mins followed by NADPH addition and measured up to 45 mins by LC-MS/MS analysis; type: ADME, Microsome; conditions: time < 50 min
[7] = Metabolic stability in alamethicin treated Beagle dog liver microsomes assessed as half life pretreated for 5 mins followed by NADPH addition and measured up to 45 mins by LC-MS/MS analysis; type: ADME, Canis lupus familiaris, Microsome; conditions: time < 50 min
[8] = Metabolic stability in alamethicin treated cynomologus monkey liver microsomes assessed as half life pretreated for 5 mins followed by NADPH addition and measured up to 45 mins by LC-MS/MS analysis; type: ADME, Macaca fascicularis, Microsome; conditions: cynomolgus monkey, time < 50 min
[9] = Metabolic stability in alamethicin treated human liver microsomes assessed as half life pretreated for 5 mins followed by UDPGA addition and measured up to 45 mins by LC-MS/MS analysis; type: ADME, Microsome; conditions: time < 50 min
[10] = Metabolic stability in alamethicin treated Sprague-Dawley rat liver microsomes assessed as half life pretreated for 5 mins followed by UDPGA addition and measured up to 45 mins by LC-MS/MS analysis; type: ADME, Microsome; conditions: time < 50 min
[11] = Metabolic stability in alamethicin treated CD-1 mouse liver microsomes assessed as half life pretreated for 5 mins followed by UDPGA addition and measured up to 45 mins by LC-MS/MS analysis; type: ADME, Microsome; conditions: time < 50 min
[12] = Metabolic stability in alamethicin treated Beagle dog liver microsomes assessed as half life pretreated for 5 mins followed by UDPGA addition and measured up to 45 mins by LC-MS/MS analysis; type: ADME, Canis lupus familiaris, Microsome; conditions: microsomes, 50 min
[13] = Metabolic stability in alamethicin treated cynomologus monkey liver microsomes assessed as half life pretreated for 5 mins followed by UDPGA addition and measured up to 45 mins by LC-MS/MS analysis; type: ADME, Macaca fascicularis, Microsome; conditions: cynomolgus monkey, time < 50 min
[14] = Efflux ratio of apparent permeability across […] in human Caco-2 cells after 2 hrs by liquid scintillation counting analysis; type: ADME, cell-based; conditions: caco-2, 2 h
[15] = Volume of distribution in mouse at 3 mg/kg, po or 1 mg/kg, iv; type: ADME, organism-based; conditions: in vivo
[16] = Half life in mouse at 1 mg/kg, iv; type: ADME, organism-based; conditions: in vivo
[17] = Oral bioavailability in mouse at 3 mg/kg; type: ADME, organism-based; conditions: in vivo
[18] = AUC in mouse at 3 mg/kg, po; type: ADME, organism-based; design: dose 3 mg/kg, route po; conditions: in vivo
[19] = Volume of distribution in rat at 5 mg/kg, po or 1 mg/kg, iv; type: ADME, organism-based; conditions: in vivo
[20] = Half life in rat at 1 mg/kg, iv; type: ADME, organism-based; conditions: in vivo
[21] = Oral bioavailability in rat at 5 mg/kg; type: ADME, organism-based; conditions: in vivo
[22] = AUC in rat at 5 mg/kg, po; type: ADME, organism-based; design: dose 5 mg/kg, route po; conditions: in vivo
[23] = Volume of distribution in dog at 0.3 mg/kg, po or 0.1 mg/kg, iv; type: ADME, organism-based, Canis lupus familiaris; conditions: in vivo
[24] = Half life in dog at 0.1 mg/kg, iv; type: ADME, organism-based, Canis lupus familiaris; conditions: in vivo
[25] = Oral bioavailability in dog at 0.3 mg/kg; type: ADME, organism-based, Canis lupus familiaris; conditions: in vivo
[26] = AUC in dog at 0.3 mg/kg, po; type: ADME, organism-based, Canis lupus familiaris; design: dose 0.3 mg/kg, route po; conditions: in vivo
[27] = Volume of distribution in cynomologus monkey at 0.3 mg/kg, po or 0.1 mg/kg, iv; type: ADME, organism-based, Macaca fascicularis; conditions: cynomolgus monkey, in vivo
[28] = Half life in cynomologus monkey at 0.1 mg/kg, iv; type: ADME, organism-based, Macaca fascicularis; conditions: cynomolgus monkey, in vivo
[29] = Oral bioavailability in cynomologus monkey at 0.3 mg/kg; type: ADME, organism-based, Macaca fascicularis; conditions: cynomolgus monkey, in vivo
[30] = AUC in cynomologus monkey at 0.3 mg/kg, po; type: ADME, organism-based, Macaca fascicularis; design: dose 0.3 mg/kg, route po; conditions: cynomolgus monkey, in vivo
[31] = Antitumor activity against human BR1077F cells xenografted in mouse assessed as tumor growth inhibition at 2 mg/kg, po QD treated as 5 days on and 2 days off regimen for 2 weeks starting from 26 days post tumor implantation; type: functional; conditions: 336 h, read-out: TGI
[32] = AUC in mouse xenografted with human BR1077F cells at 2 mg/kg, po QD treated as 5 days on and 2 days off regimen for 2 weeks starting from 26 days post tumor implantation; type: ADME, organism-based; design: time 2 weeks, dose 2 mg/kg, route po; conditions: in vivo
[33] = target: Bromodomain-containing protein 2 (Homo sapiens, UniProt P25440); assay: Inhibition of BRD2 (unknown origin)
[34] = target: Bromodomain-containing protein 3 (Homo sapiens, UniProt Q15059); assay: Inhibition of BRD3 (unknown origin)
[35] = Drug metabolism in human hepatocytes assessed as glucuronides formation at 5 uM measured after 2 hrs by LC/UV/MS analysis; type: ADME, cell-based, Hepatocyte

Chain of Bromodomain-containing protein 3 (Q15059 whole entry): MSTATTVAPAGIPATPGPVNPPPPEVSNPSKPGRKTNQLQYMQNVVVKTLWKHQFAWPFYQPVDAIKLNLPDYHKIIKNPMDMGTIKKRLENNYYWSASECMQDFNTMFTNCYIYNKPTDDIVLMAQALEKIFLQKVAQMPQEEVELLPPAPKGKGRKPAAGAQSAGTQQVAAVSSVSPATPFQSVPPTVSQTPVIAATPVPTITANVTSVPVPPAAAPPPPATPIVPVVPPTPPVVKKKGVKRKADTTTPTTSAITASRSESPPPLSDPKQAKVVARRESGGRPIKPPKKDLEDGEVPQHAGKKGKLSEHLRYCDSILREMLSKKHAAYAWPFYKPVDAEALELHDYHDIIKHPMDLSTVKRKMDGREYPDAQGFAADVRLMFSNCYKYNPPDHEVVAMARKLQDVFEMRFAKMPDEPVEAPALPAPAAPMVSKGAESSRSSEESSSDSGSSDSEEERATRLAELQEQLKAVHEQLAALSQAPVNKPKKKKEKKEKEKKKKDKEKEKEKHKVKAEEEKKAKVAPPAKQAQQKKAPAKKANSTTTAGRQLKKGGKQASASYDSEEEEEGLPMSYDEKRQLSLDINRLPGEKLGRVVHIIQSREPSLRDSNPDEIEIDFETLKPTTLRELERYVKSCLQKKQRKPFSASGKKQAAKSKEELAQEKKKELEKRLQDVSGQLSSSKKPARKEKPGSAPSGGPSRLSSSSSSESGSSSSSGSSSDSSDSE
Chain of Bromodomain-containing protein 2 (P25440 whole entry): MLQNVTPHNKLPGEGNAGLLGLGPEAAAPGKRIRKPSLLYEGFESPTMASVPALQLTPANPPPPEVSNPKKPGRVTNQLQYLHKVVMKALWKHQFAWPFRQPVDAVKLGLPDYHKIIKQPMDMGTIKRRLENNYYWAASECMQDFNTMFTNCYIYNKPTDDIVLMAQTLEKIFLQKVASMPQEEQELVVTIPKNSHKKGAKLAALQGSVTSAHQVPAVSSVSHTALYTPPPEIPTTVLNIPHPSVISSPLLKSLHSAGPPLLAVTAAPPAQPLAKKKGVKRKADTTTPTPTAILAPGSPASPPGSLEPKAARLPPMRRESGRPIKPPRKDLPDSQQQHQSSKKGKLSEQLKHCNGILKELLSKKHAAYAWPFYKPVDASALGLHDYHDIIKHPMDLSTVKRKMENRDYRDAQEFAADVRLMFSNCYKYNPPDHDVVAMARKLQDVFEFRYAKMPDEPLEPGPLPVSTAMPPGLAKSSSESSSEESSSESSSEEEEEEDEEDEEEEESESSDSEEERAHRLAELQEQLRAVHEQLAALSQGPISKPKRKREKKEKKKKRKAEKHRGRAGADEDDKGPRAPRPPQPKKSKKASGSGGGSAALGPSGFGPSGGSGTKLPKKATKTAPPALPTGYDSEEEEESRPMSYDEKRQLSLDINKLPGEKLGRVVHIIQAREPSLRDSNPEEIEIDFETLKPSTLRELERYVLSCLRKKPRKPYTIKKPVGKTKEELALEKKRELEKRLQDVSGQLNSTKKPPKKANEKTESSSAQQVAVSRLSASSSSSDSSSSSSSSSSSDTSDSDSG

Cc1nnn(C)c1-c1cnc2c3ccc(C(C)C)cc3n([C@H](c3ccccc3)C3CCOCC3)c2c1
IC50 [1]: 4 nM | IC50 [2]: 9 nM | IC50 [3]: 39 nM

[2H]C([2H])([2H])c1nnn(C)c1-c1cnc2c3cc(F)c(C(C)(C)O)cc3n([C@H](c3ccccc3)C3CCOCC3)c2c1
IC50 [2]: 2 nM | IC50 [3]: 6 nM | half-life [4]: 52 min | half-life [5]: 46 min | half-life [6]: 41 min | half-life [7]: 32 min | half-life [8]: 10 min | half-life [9]: 120 min | half-life [10]: 120 min | half-life [11]: 120 min | t1/2 [12]: 120 min | half-life [13]: 120 min | Ratio [14]: 1.8 | Vd [15]: 1.4 L/kg | half-life [16]: 204 min | bioavailability [17]: 100% | AUC [18]: 25 µM·h | Vd [19]: 2.9 L/kg | half-life [20]: 246 min | bioavailability [21]: 74% | AUC [22]: 6.6 µM·h | Vd [23]: 5.8 L/kg | half-life [24]: 456 min | bioavailability [25]: 73% | AUC [26]: 0.55 µM·h | Vd [27]: 1.3 L/kg | half-life [28]: 240 min | bioavailability [29]: 85% | AUC [30]: 1.9 µM·h | inhibition in vivo at 2 mg/kg [31]: 88% | AUC at 336 h [32]: 4.8 µM·h | IC50 [33]: 0.2 nM | IC50 [34]: 1.6 nM | Drug metabolism [35]: Metabolite_Notdetected

[2H]C([2H])([2H])c1nnn(C)c1-c1cnc2c3ccc(C(C)(C)O)cc3n([C@H](c3ccccc3)C3CCOCC3)c2c1
IC50 [1]: 1.2 nM | IC50 [2]: 0.8 nM | IC50 [3]: 6 nM | half-life [4]: 59 min | half-life [5]: 43 min | half-life [6]: 25 min | half-life [7]: 37 min | half-life [8]: 29 min | Ratio [14]: 6.1
